Holding throughout (type): cell-based
Assay [1] concerns the target T1, human GLP-1 receptor (hGLP-1R) (Homo sapiens, UniProt P43220).
T1 construct: expressed in transfected cells
The assay is described as follows: GLP-1 receptor assay, method B (CRE-luciferase reporter, BHK cells, 384-well). A general note: In a reporter assay the amount or activity of a reporter protein is the signal.
Experimental: Cells at approximately 80-90% confluence were washed once in PBS (Gibco 14190-094) and loosened from the cell flasks with Versene (Gibco, 15040-033). […] Cells were aliquoted and stored at −180° C. until use.
The assay buffer consisted of DMEM without phenol red (Gibco, 11880-028) supplemented with 1× GlutaMAX (Gibco, 35050-038), 10 mM HEPES (Gibco, 15630-056), 1% (w/v) ovalbumin (Sigma, A5503) and 0.1% (v/v) Pluronic F-68 (Gibco, 24040-032) either with HSA or without HSA (Sigma, A9511).
Serial dilutions were transferred to a 384-well assay plate (PerkinElmer/Revvity, 6007688) and mixed with an equal volume (10 μL) of assay buffer without or with 3% (w/v) HSA (Sigma, A-9511). Frozen stocks of hGLP-1R BHK Cre-Luc cells were thawed in a 37° C. water bath, washed once in PBS (Gibco 14190-094), diluted to 1.5×10^5 (1.5E+5) cells/mL in assay buffer (without HSA) and added (10 μL) to each well of the 384-well assay plate. After a short centrifugation, the assay plates were incubated for 3 hours at 37° C. in 5% CO2 and let to equilibrated at room temperature for 10 minutes before the addition of 30 μL steadylite Plus™ PerkinElmer/Revvity, 6066759) per well. Plates were sealed and incubated at room temperature with gentle shaking for 30 minutes while protected from light. Luminescence was detected on a luminescence plate reader e.g. a Synergy 2 (BioTek).

Assay [2] addresses T2, human GIP receptor (hGIPR) (Homo sapiens, UniProt P48546).
T2 construct: expressed in transfected cells
T2 sequence (P48546 22-466): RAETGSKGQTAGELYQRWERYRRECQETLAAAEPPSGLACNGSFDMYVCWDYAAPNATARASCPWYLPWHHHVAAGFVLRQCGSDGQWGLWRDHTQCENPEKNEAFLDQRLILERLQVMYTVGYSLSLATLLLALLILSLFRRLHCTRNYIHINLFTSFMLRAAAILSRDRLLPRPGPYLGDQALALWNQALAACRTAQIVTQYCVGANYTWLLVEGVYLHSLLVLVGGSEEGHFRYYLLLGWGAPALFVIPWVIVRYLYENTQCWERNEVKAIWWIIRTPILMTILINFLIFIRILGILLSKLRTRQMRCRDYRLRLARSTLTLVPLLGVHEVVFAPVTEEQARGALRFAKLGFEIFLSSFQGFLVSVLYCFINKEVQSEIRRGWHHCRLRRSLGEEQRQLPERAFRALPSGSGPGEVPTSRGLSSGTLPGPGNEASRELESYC
Briefly: GIP receptor assay, method B (CRE-luciferase reporter, BHK cells, 384-well).

Assay [3] addresses T3, human amylin receptor (hAMYR3) (Homo sapiens, UniProt O60896+P30988).
T3 construct: host or cells: BHK cells (Hollex-1 line expressing hCTR(a) and CRE-Luc), further transfected with human RAMP3
The assay is described as follows: Amylin receptor assay, method B (CRE-luciferase reporter, BHK cells). As to the method: To assess how the activation of the receptors is potentially influenced by the presence of human serum albumin (HSA), the in vitro assays were performed in the absence of HSA and presence of 1% (w/v) HSA.
It is thus possible to measure hAMYR3 activity using a CRE-luciferase reporter gene introduced into Baby Hamster Kidney (BHK) cells co-expressing the hAMYR3.
The cell line was further transfected with human receptor modifying protein 3 (RAMP3) using standard methods.
After centrifugation, the cell pellet was resuspended and diluted to approximately 2.5-4.0×10^6 (2.5E+6 to 4.0E+6) cells/mL in Recovery™ Cell Culture Freezing Medium (Gibco, 12648-010). Cells were aliquoted and stored at −180° C. until use.
The assay buffer consisted of DMEM without phenol red (Gibco, 11880-028) supplemented with 1× GlutaMAX (Gibco, 35050-038), 10 mM HEPES (Gibco, 15630-056) and 1% (w/v) ovalbumin (Sigma, A5503) either with or without 0.1% (v/v) Pluronic F-68 (Gibco, 24040-032) and either with or without HSA (Sigma, A9511).
To perform the assay, hAMYR3 BHK Cre-Luc cells were thawed, washed once in PBS (Gibco 14190-094) and seeded in 40 μL growth medium in a white 384-well culture plate (PerkinElmer/Revvity, 6007688) at a cell density of 4.0×10^3 (4.0E+3) cells/well the day before the experiment. The plate was incubated over night at 37° C. in 5% CO2. […] Serial dilutions were then mixed in a new 96-well plate with equal volume (1:1:1 ratio) of assay buffer and either assay buffer without or with 3% HSA (Sigma, A-9511). Twenty microliters of the solution mix were transferred to the cells which previously were washed once with PBS (Gibco 14190-094). After a short centrifugation, the assay plates were incubated for 3 hours at 37° C. in 5% CO2 and let to equilibrated at room temperature for 10 minutes before the addition of 30 μL steadylite Plus™ PerkinElmer/Revvity, 6066759) per well. Plates were sealed and incubated at room temperature with gentle shaking for 30 minutes while protected from light. Luminescence was detected on a luminescence plate reader e.g., a Synergy 2 (BioTek).

[4] abbreviates: hGLP-1R Potency, 1% HSA, EC50, methods B, in the presence of 1% HSA.
Setting [5] is: method B, absence of HSA, read-out: hGLP-1R Potency, no HSA, EC50.
Where [6] appears, read: hGIPR Potency, 1% HSA, EC50, methods B, in the presence of 1% HSA.
The mark [7] stands for this setting: method B, absence of HSA, read-out: hGIPR Potency, no HSA, EC50.
Setting [8] is: hAMYR3 Potency, 1% HSA, EC50, methods B, in the presence of 1% HSA.
Where [9] appears, read: method B, absence of HSA, read-out: hAMYR3 Potency, no HSA, EC50.

This is an account of results in patent US20260174875A1 (Novo Nordisk A/S, priority 2023, published 2026).

Where two headings read alike, the source gives them in different places.

T1 sequence (P43220 24-463): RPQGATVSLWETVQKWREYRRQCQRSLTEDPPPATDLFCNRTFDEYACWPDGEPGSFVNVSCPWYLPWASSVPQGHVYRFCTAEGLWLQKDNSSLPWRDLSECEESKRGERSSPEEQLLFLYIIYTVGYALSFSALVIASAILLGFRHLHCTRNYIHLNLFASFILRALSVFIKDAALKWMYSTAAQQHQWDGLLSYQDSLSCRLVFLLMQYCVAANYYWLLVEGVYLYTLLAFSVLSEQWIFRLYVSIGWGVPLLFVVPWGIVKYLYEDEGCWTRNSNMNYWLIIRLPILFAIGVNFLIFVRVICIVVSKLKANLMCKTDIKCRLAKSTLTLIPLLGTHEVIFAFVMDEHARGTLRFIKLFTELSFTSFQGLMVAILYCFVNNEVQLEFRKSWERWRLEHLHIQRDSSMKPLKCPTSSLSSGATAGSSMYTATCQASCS
T3 sequence (P30988 25-474): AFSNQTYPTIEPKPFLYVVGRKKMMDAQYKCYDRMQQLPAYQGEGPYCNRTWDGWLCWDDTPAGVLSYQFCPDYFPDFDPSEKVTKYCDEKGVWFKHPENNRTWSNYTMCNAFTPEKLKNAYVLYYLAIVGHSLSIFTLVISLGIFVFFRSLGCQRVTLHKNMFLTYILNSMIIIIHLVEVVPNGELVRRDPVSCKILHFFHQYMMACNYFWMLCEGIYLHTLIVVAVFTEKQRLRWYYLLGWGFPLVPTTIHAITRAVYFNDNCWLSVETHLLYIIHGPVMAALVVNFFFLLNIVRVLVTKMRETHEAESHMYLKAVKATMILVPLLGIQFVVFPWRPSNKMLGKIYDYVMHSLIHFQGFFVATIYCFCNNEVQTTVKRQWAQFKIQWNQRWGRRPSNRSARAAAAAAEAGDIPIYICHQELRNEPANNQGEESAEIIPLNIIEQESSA
T3 sequence (O60896 24-148): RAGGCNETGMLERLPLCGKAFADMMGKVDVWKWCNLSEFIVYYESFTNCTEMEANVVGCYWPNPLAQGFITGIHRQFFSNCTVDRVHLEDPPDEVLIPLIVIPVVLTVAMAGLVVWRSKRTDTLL

By EC50 is commonly meant the concentration that produces a half-maximal response. As for `CC[C@H](C)[C@H](NC(=O)[C@H](CCC(=O)O)NC(=O)[C@H](CCC(=O)O)NC(=O)[C@H](CC(C)C)NC(=O)[C@H](CC(C)C)NC(=O)[C@@H](NC(=O)[C@H](CO)NC(=O)[C@H](Cc1ccc(O)cc1)NC(=O)[C@H](CC(=O)O)NC(=O)[C@H](CO)NC(=O)[C@@H](NC(=O)[C@H](Cc1ccccc1)NC(=O)[C@@H](NC(=O)CNC(=O)[C@H](CCC(=O)O)NC(=O)C(C)(C)NC(=O)[C@@H](N)Cc1ccc(O)cc1)[C@@H](C)O)[C@@H](C)O)[C@@H](C)CC)C(=O)N[C@@H](C)C(=O)N[C@@H](C)C(=O)N[C@@H](CCCNC(=N)N)C(=O)N[C@@H](CCC(=O)O)C(=O)N[C@@H](Cc1ccccc1)C(=O)N[C@H](C(=O)N[C@@H](CCC(=O)O)C(=O)N[C@@H](Cc1c[nH]c2ccccc12)C(=O)N[C@@H](CC(C)C)C(=O)N[C@@H](CC(C)C)C(=O)N[C@@H](C)C(=O)NCC(=O)NCC(=O)N1CCC[C@H]1C(=O)N[C@@H](CO)C(=O)N[C@@H](CO)C(=O)NCC(=O)N[C@@H](C)C(=O)NCC(=O)N[C@@H](C)C(=O)N[C@@H](CO)C(=O)N[C@@H](Cc1c[nH]cn1)C(=O)N[C@@H](CC(C)C)C(=O)N[C@@H](CO)C(=O)N[C@H](C(=O)N[C@@H](C)C(=O)N[C@@H](CCC(N)=O)C(=O)N[C@H](C(=O)N[C@@H](CCC(N)=O)C(=O)N[C@@H](CCCNC(=N)N)C(=O)N[C@@H](CC(C)C)C(=O)N[C@@H](CO)C(=O)N[C@@H](C)C(=O)N[C@@H](CCC(=O)O)C(=O)N[C@@H](CC(C)C)C(=O)N[C@@H](Cc1c[nH]cn1)C(=O)N[C@@H](CCCCNC(=O)COCCOCCNC(=O)COCCOCCNC(=O)CC[C@H](NC(=O)CCCCCCCCCCCCCCCCCCC(=O)O)C(=O)O)C(=O)N[C@@H](CC(C)C)C(=O)N[C@@H](C)C(=O)N[C@H](C(=O)N[C@@H](CCC(=O)O)C(=O)N1CCC[C@H]1C(=O)N[C@@H](CCCNC(=N)N)C(=O)N[C@H](C(=O)N[C@@H](CCC(=O)O)C(=O)N[C@H](C(=O)NCC(=O)N[C@@H](CO)C(=O)NCC(=O)N[C@@H](CO)C(=O)N1CCC[C@H]1C(N)=O)[C@@H](C)O)[C@@H](C)O)[C@@H](C)O)[C@@H](C)O)[C@@H](C)O)[C@@H](C)CC` [Compound 179], the concentration for a half-maximal effect (EC50) in assay [1] (setting [4]) was 0.17 nM; in assay [1] (setting [5]), 0.0233 nM; in assay [2] (setting [6]), 0.0255 nM; in assay [2] (setting [7]) it was 0.00436 nM; in assay [3] (setting [8]), 1.35 nM; in assay [3] (setting [9]) it was 0.01 nM.

Turning to `CC[C@H](C)[C@H](NC(=O)[C@H](CCC(=O)O)NC(=O)[C@H](CCC(=O)O)NC(=O)[C@H](CC(C)C)NC(=O)[C@H](CC(C)C)NC(=O)[C@@H](NC(=O)[C@H](CO)NC(=O)[C@H](Cc1ccc(O)cc1)NC(=O)[C@H](CC(=O)O)NC(=O)[C@H](CO)NC(=O)[C@@H](NC(=O)[C@H](Cc1ccccc1)NC(=O)[C@@H](NC(=O)CNC(=O)[C@H](CCC(=O)O)NC(=O)C(C)(C)NC(=O)[C@@H](N)Cc1ccc(O)cc1)[C@@H](C)O)[C@@H](C)O)[C@@H](C)CC)C(=O)N[C@@H](C)C(=O)N[C@@H](C)C(=O)N[C@@H](CCCNC(=N)N)C(=O)N[C@@H](CCC(=O)O)C(=O)N[C@@H](Cc1ccccc1)C(=O)N[C@H](C(=O)N[C@@H](CCC(=O)O)C(=O)N[C@@H](Cc1c[nH]c2ccccc12)C(=O)N[C@@H](CC(C)C)C(=O)N[C@@H](CC(C)C)C(=O)N[C@@H](C)C(=O)NCC(=O)NCC(=O)N1CCC[C@H]1C(=O)N[C@@H](CO)C(=O)N[C@@H](CO)C(=O)NCC(=O)N[C@@H](C)C(=O)NCC(=O)N[C@@H](CCC(N)=O)C(=O)N[C@@H](C)C(=O)N[C@@H](CCC(=O)O)C(=O)NCC(=O)N[C@@H](CCC(N)=O)C(=O)N[C@@H](C)C(=O)N1CCC[C@H]1C(=O)NCC(=O)N[C@@H](C)C(=O)N[C@@H](CO)C(=O)N[C@@H](Cc1c[nH]cn1)C(=O)N[C@@H](CC(C)C)C(=O)N[C@@H](CO)C(=O)N[C@H](C(=O)N[C@@H](C)C(=O)N[C@@H](CCC(N)=O)C(=O)N[C@H](C(=O)N[C@@H](CCC(N)=O)C(=O)N[C@@H](CCCNC(=N)N)C(=O)N[C@@H](CC(C)C)C(=O)N[C@@H](CO)C(=O)N[C@@H](C)C(=O)N[C@@H](CCC(=O)O)C(=O)N[C@@H](CC(C)C)C(=O)N[C@@H](Cc1c[nH]cn1)C(=O)N[C@@H](CCCCNC(=O)COCCOCCNC(=O)COCCOCCNC(=O)CC[C@H](NC(=O)CCCCCCCCCCCCCCCCCCC(=O)O)C(=O)O)C(=O)N[C@@H](CC(C)C)C(=O)N[C@@H](C)C(=O)N[C@H](C(=O)N[C@@H](CC(C)C)C(=O)N1CCC[C@H]1C(=O)N[C@@H](CCCNC(=N)N)C(=O)N[C@H](C(=O)N[C@@H](CCC(=O)O)C(=O)N[C@H](C(=O)NCC(=O)N[C@@H](CO)C(=O)NCC(=O)N[C@@H](CO)C(=O)N1CCC[C@H]1C(N)=O)[C@@H](C)O)[C@@H](C)O)[C@@H](C)O)[C@@H](C)O)[C@@H](C)O)[C@@H](C)CC` [Compound 150], the EC50 in assay [1] (setting [4]) came out at 0.0653 nM; in assay [1] (setting [5]), 0.0262 nM; in assay [2] (setting [6]), 0.0107 nM; in assay [2] (setting [7]), 0.00299 nM; in assay [3] (setting [8]), 0.961 nM; in assay [3] (setting [9]), 0.00761 nM.

As for `CC[C@H](C)[C@H](NC(=O)[C@H](CCC(=O)O)NC(=O)[C@H](CCC(=O)O)NC(=O)[C@H](CC(C)C)NC(=O)[C@H](CC(C)C)NC(=O)[C@@H](NC(=O)[C@H](CO)NC(=O)[C@H](Cc1ccc(O)cc1)NC(=O)[C@H](CC(=O)O)NC(=O)[C@H](CO)NC(=O)[C@@H](NC(=O)[C@H](Cc1ccccc1)NC(=O)[C@@H](NC(=O)CNC(=O)[C@H](CCC(=O)O)NC(=O)C(C)(C)NC(=O)[C@@H](N)Cc1ccc(O)cc1)[C@@H](C)O)[C@@H](C)O)[C@@H](C)CC)C(=O)N[C@@H](C)C(=O)N[C@@H](C)C(=O)N[C@@H](CCCNC(=N)N)C(=O)N[C@@H](CCC(=O)O)C(=O)N[C@@H](Cc1ccccc1)C(=O)N[C@H](C(=O)N[C@@H](CCC(=O)O)C(=O)N[C@@H](Cc1c[nH]c2ccccc12)C(=O)N[C@@H](CC(C)C)C(=O)N[C@@H](CC(C)C)C(=O)N[C@@H](C)C(=O)NCC(=O)NCC(=O)N1CCC[C@H]1C(=O)N[C@@H](CO)C(=O)N[C@@H](CO)C(=O)N[C@@H](CCC(=O)O)C(=O)N[C@@H](C)C(=O)NCC(=O)N[C@@H](C)C(=O)N[C@@H](CO)C(=O)N[C@@H](CCC(N)=O)C(=O)N[C@@H](CC(C)C)C(=O)N[C@@H](CO)C(=O)N[C@H](C(=O)N[C@@H](C)C(=O)N[C@@H](CCC(N)=O)C(=O)N[C@H](C(=O)N[C@@H](CCC(N)=O)C(=O)N[C@@H](CCCNC(=N)N)C(=O)N[C@@H](CC(C)C)C(=O)N[C@@H](CO)C(=O)N[C@@H](C)C(=O)N[C@@H](CCC(=O)O)C(=O)N[C@@H](CC(C)C)C(=O)N[C@@H](Cc1c[nH]cn1)C(=O)N[C@@H](CCCCNC(=O)COCCOCCNC(=O)COCCOCCNC(=O)CC[C@H](NC(=O)CCCCCCCCCCCCCCCCCCC(=O)O)C(=O)O)C(=O)N[C@@H](CC(C)C)C(=O)N[C@@H](C)C(=O)N[C@H](C(=O)N[C@@H](CC(C)C)C(=O)N1CCC[C@H]1C(=O)N[C@@H](CCCNC(=N)N)C(=O)N[C@H](C(=O)N[C@@H](CCC(=O)O)C(=O)N[C@H](C(=O)NCC(=O)N[C@@H](CO)C(=O)NCC(=O)N[C@@H](CO)C(=O)N1CCC[C@H]1C(N)=O)[C@@H](C)O)[C@@H](C)O)[C@@H](C)O)[C@@H](C)O)[C@@H](C)O)[C@@H](C)CC` [Compound 181], the values for the EC50 in assay [1] (setting [5]), in assay [2] (setting [7]) and in assay [3] (setting [9]) were 0.0288 nM, 0.00325 nM and 0.00846 nM, respectively.
